According to patent publication US9096832B2, “Differentiation of human embryonic stem cells” (LifeScan, Inc., priority 2007, dated 2015):

How the values were obtained:
[1] = system: H9P46 embryonic stem cells; test: Definitive endoderm on […]: effective dose of Wnt-3a (FACS, PCR, cell number); format: cell-based, human
Protocol: Control cultures were not treated with Wnt-3a. FIG. 27, panel a depicts the expression of CXCR4 by FACS at day 5 in the absence of Wnt-3a, b) 10 ng/ml Wnt-3a, c) 20 ng/ml Wnt-3a and d) 50 ng/ml Wnt-3a. In the absence of Wnt-3a the expression of CXCR4 was very low. […] Real-time PCR results (FIG. 28, panel a) also confirm this finding.
In a separate study, H9p52 cells were plated on 1:30 low growth factor […]™. For the first 2 days of the DE protocol a range of Wnt-3a doses was used: 10 ng/ml, 5 ng/ml and 1 ng/ml. […] The number of cells at the end of the experiment is noted in FIG. 28, panel c.

H9 cells = test: Immunofluorescence staining of DE markers, activin A +/- Wnt-3a; format: cell-based, human
Excerpt: Day 5 DE cultures of H9 cells were stained according to Example 10 for SOX-17, HNF-3B, GATA-4, N-cadherin, and E-cadherin. All nuclei were counter stained with DAPI.

SA002 P38 cells = test: Differentiation of SA002 ES line on […] to definitive endoderm (real-time PCR, FACS); format: cell-based, human; conditions: 20 ng/ml Wnt-3a with 100 ng/ml activin A
Excerpt: Expression of CXCR4 is depicted in FIG. 45: a) AA treatment b) AA+Wnt-3a c) AA+GSK-3B inhibitor.

[2] = system: human embryonic stem cell line H7; test: FACS of protein markers after activin A treatment (Table IIB); format: cell-based
Excerpt: (§1) The level of expression of definitive endoderm markers was examined by PCR (FIG. 1), FACS (results summarized in Table II), and immunohistochemistry (FIG. 2).
(§2) CXCR4 positive cells were also highly positive for C-kit, EPCAM, CD99, and negative for CD9. The expression pattern for these markers was consistent among all three hES cell lines examined (Table IIB for H7 and Table IIC for H1). […] In parallel, almost 100% of the differentiated cells were […] (FIG. 2).
(§3) Adhered cells were removed from culture plates by five-minute incubation with TrypLE™ Express solution (Invitrogen, CA). Released cells were resuspended in human embryonic stem cell culture medium and recovered by centrifugation, followed by washing and resuspending the cells in a staining buffer consisting of 2% BSA, 0.05% sodium azide in PBS (Sigma, MO). As appropriate, the cells were Fc-receptor blocked for 15 minutes using a 0.1% γ-globulin (Sigma) solution. […] Controls included appropriate isotype matched antibodies, unstained cells, and cells stained only with secondary conjugated antibody. All incubations with antibodies were performed for 30 mins at 4° C. after which the cells were washed with the staining buffer. Samples that were stained with unconjugated primary antibodies were incubated for an additional 30 mins at 4° C. with secondary conjugated PE or —APC labeled antibodies. See Table I for a list of secondary antibodies used. Washed cells were pelleted and resuspended in the staining buffer, and the cell surface molecules were identified using a FACS Array (BD Biosciences) instrument, collecting at least 10,000 events.

[3] = system: human embryonic stem cell line H9; test: FACS of protein markers after activin A treatment, hES cells on mouse embryonic fibroblasts (Table IIA); format: cell-based; conditions: for CD9 protein expression / CXCR4 protein expression / ECAM protein expression / NCAM protein expression / SSEA-3 protein expression: H9, FACS
Excerpt: as §1, §2, §3

[4] = system: human embryonic stem cell line H9; test: Formation of pancreatic endocrine cells with gamma-secretase inhibitor L-685,458 (PCR); format: cell-based; conditions: activin A alone or in combination with retinoic acid and FGFs
Protocol: After this time interval, the cells were then treated for six days with combinations of retinoic acid and FGF as outlined in Example 2, then the culture medium was removed and replaced with medium comprising DMEM/F12 with 2% FBS, containing the γ-secretase inhibitors L-685,458 at 10 μM for three days.
Final data were expressed relative to a calibrator sample.

## Wnt-3a
[1]; 10-50 ng/ml Wnt-3a, day 5
  number of CXCR4 positive cells: significantly increased
[1]; for 2 days, H9p52 on 1:30 low growth factor MATRIGEL
  Wnt3a dose sufficient to reach optimal cell expansion and definitive endoderm differentiation: 10 ng/mL
H9 cells; 20 ng/ml Wnt-3a, Day 5 DE cultures
  nuclei stained positive for SOX-17, HNF-3beta, and GATA-4: significantly larger number
H9 cells; addition of Wnt-3a
  expression of N-cadherin: enhanced expression
  expression of e-cadherin: significant loss of expression
SA002 P38 cells
  expression of DE markers in SA002 line: required addition of Wnt-3A for robust expression

## Activin A: activin A (a member of the TGFβ superfamily), R&D Systems; 'w/o wnt' in Table VII = 100 ng/ml Activin A without Wnt3a
[2]; 1-day AA 100 ng/ml
  CXCR4+: 6%
  CXCR4+ C-Kit+: 2.97%
  CXCR4+ CD9+: 8.13%
  CXCR4+ EPCAM+: 14.58%
[2]; 3-day AA 100 ng/ml
  CXCR4+: 38%
  CXCR4+ C-Kit+: 31.56%
  CXCR4+ CD9+: 24.11%
  CXCR4+ EPCAM+: 36.67%
[2]; 5-day AA 100 ng/ml
  CXCR4+: 65.5%
  CXCR4+ C-Kit+: 55.21%
  CXCR4+ CD9+: 2.1%
  CXCR4+ EPCAM+: 54.5%
[3]; FACS, following activin A treatment
  expression of E-cadherin and N-cadherin: did not change
[3]; 2-DAY activin A 100 ng/ml
  CD9 protein expression: 29.42%
  CXCR4 protein expression: 20.2%
  ECAM protein expression: 20.87%
  NCAM protein expression: 5.04%
  SSEA-3 protein expression: 92.14%
[3]; 5-DAY activin A 100 ng/ml
  CD9 protein expression: 7.27%
  CXCR4 protein expression: 55.26%
  ECAM protein expression: 14.17%
  NCAM protein expression: 21.1%
  SSEA-3 protein expression: 42.9%
[3]; 8-DAY activin A 100 ng/ml
  CD9 protein expression: 4.1%
  CXCR4 protein expression: 56.92%
  ECAM protein expression: 1.02%
  NCAM protein expression: 8.86%
  SSEA-3 protein expression: 22.05%
[3]; following activin A treatment
  CXCR4 protein by FACS analysis: increase
[4]
  expression of Ngn3 or insulin: did not induce
